19 molecules from patent publication US9771333B2, “Quinazoline derivatives as TAM family kinase inhibitors” (SIGNALCHEM LIFESCIENCES CORP., priority 2013, dated 2017) can be followed below.

In general, IC50 refers to the concentration that inhibits the measured activity by half.

What all share (type): biochemical
In one experiment the target is T1, human Tyro3 (Homo sapiens, UniProt Q06418).
T1 construct: GST (N); made in house; host or cells: Sf9 insect cells (baculovirus)
T1 sequence (Q06418 455-890 limits assumed): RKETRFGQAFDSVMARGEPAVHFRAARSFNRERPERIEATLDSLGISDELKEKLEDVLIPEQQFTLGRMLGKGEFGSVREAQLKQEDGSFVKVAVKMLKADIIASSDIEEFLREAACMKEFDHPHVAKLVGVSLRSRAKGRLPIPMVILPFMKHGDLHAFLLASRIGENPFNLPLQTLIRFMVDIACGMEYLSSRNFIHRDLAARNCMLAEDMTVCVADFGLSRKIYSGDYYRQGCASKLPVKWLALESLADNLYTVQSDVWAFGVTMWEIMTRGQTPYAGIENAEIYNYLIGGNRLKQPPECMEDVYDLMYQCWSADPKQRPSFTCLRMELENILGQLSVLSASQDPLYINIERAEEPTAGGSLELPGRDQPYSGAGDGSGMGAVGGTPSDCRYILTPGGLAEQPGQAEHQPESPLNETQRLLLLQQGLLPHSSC
The experiment is described as follows: Kinase enzymatic activity assay (33P-radiolabeled phosphate transfer), Tyro3. As to conditions: recombinant human Tyro3 (455-end), poly(4:1 glu:tyr) substrate, 30 minutes. The gist of the method:
(§1)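 GST-tagged human Tyro3 (455-end), Axl (473-end) and Mer (578-872) from Sf9 cells, with poly(Glu:Tyr) 4:1 substrate, in MOPS pH 7.2 buffer with MgCl2. [33P]-ATP added from a 250 µM cocktail; reaction 30 min at room temperature, filter-captured counts, duplicates. IC50 derived from % inhibition over a compound serial dilution.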

The target in a further experiment is T2, human Mer (Homo sapiens, UniProt Q12866).
T2 construct: GST (N); made in house; host or cells: Sf9 insect cells (baculovirus)
T2 sequence (Q12866 578-872): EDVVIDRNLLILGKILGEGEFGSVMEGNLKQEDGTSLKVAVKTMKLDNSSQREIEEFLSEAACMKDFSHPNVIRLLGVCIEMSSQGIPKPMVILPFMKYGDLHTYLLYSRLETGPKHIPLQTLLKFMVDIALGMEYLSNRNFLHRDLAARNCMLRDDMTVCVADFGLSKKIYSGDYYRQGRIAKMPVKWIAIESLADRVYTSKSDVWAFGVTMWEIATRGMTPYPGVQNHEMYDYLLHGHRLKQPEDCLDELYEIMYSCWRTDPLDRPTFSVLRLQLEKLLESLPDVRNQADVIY
The experiment is described as follows: Kinase enzymatic activity assay (33P-radiolabeled phosphate transfer), Mer. As to conditions: recombinant human Mer (578-872), poly(4:1 glu:tyr) substrate, 30 minutes. The gist of the method: as §1

In the next experiment the target is T3, human Axl (Homo sapiens, UniProt P30530).
T3 construct: GST (N); made in house; host or cells: Sf9 insect cells (baculovirus)
T3 sequence (P30530 473-894 limits assumed): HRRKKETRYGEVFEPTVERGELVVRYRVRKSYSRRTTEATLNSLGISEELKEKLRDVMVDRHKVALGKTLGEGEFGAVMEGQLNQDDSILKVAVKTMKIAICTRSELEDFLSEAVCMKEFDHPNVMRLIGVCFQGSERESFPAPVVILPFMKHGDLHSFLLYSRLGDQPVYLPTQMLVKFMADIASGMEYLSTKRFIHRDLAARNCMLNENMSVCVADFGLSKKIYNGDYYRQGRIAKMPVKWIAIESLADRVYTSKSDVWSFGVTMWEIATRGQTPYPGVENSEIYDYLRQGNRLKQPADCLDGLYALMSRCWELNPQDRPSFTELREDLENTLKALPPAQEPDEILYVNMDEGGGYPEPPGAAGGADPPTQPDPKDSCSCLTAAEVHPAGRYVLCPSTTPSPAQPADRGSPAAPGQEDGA
The experiment is described as follows: Kinase enzymatic activity assay (33P-radiolabeled phosphate transfer), Axl. The following applies: recombinant human Axl (473-end), poly(4:1 glu:tyr) substrate, 30 minutes. The gist of the method: as §1

For the molecule `CN(C)CCOCCOc1cc(OC2CCOCC2)c2c(Nc3nc(C(F)(F)F)cs3)ncnc2c1` [Example 2.56, N-(7-(2-(2-(dimethylamino)ethoxy)ethoxy)-5-((tetrahydro-2H-pyran-4-yl)oxy)quinazolin-4-yl)-4-(trifluoromethyl)thiazol-2-amine], the IC50 at human Tyro3 was more than 10000 nM; at human Mer, 1000 to 10000 nM; on human Axl, less than 500 nM.
Consider `CN(C)CCN1CCN(c2cc(OC3CCOCC3)c3c(Nc4nc(C(F)(F)F)cs4)ncnc3c2)CC1` [Example 2.57, N-(7-(4-(2-(dimethyl-amino)ethyl)piperazin-1-yl)-5-((tetrahydro-2H-pyran-4-yl)oxy)-quinazolin-4-yl)-4-(trifluoromethyl)-thiazol-2-amine], for which the IC50 at human Tyro3 is 1000 to 10000 nM; on human Mer, 1000 to 10000 nM; on human Axl it was less than 500 nM.
`CN1CCC(COc2cc(OC3CCOCC3)c3c(Nc4cc(C(F)(F)F)no4)ncnc3c2)CC1` [Example 2.58, N-(7-((1-methylpiperidin-4-yl)methoxy)-5-((tetrahydro-2H-pyran-4-yl)oxy)quinazolin-4-yl)-3-(trifluoromethyl)isoxazol-5-amine]: the IC50 on human Tyro3 was more than 10000 nM; at human Mer, 1000 to 10000 nM; at human Axl, 500 to 1000 nM.
For `CN(C)CCCN(C)c1cc(OC2CCOCC2)c2c(Nc3nc(C(F)(F)F)cs3)ncnc2c1` [Example 2.59, N^7-(3-(dimethylamino)-propyl)-N^7-methyl-5-((tetrahydro-2H-pyran-4-yl)oxy)-N^4-(4-(trifluoromethyl)thiazol-2-yl)quinazoline-4,7-diamine], the values for the IC50 on human Tyro3, on human Mer and on human Axl were more than 10000 nM, more than 10000 nM and 500 to 1000 nM, respectively.
As to `FC(F)(F)c1csc(Nc2ncnc3cc(OCCN4CCCCC4)cc(OC4CCOCC4)c23)n1` [Example 2.60, N-(7-(2-(piperidin-1-yl)ethoxy)-5-((tetrahydro-2H-pyran-4-yl)oxy)quinazolin-4-yl)-4-(trifluoromethyl)thiazol-2-amine], the IC50 at human Tyro3 was more than 10000 nM; at human Mer, less than 500 nM; on human Axl it was less than 500 nM.
In the case of `CN1CCC(COc2cc(OC3CCOCC3)c3c(Nc4ccon4)ncnc3c2)CC1` [Example 2.61, N-(7-((1-methylpiperidin-4-yl)methoxy)-5-((tetrahydro-2H-pyran-4-yl)oxy)-quinazolin-4-yl)isoxazol-3-amine], the results for the IC50 at human Tyro3, on human Mer and on human Axl were 1000 to 10000 nM, less than 500 nM and less than 500 nM, respectively.
Consider `CN(C)CCCOc1cc(OC2CCOCC2)c2c(Oc3ccc(F)cc3Cl)ncnc2c1` [Example 2.62, 3-((4-(2-chloro-4-fluorophenoxy)-5-((tetrahydro-2H-pyran-4-yl)oxy)quinazolin-7-yl)oxy)-N,N-dimethylpropan-1-amine], for which the IC50 at human Tyro3 is less than 500 nM; at human Mer, less than 500 nM; at human Axl it was 1000 to 10000 nM.
As for `CN1CCN(CCCOc2cc(OC3CCOCC3)c3c(Oc4ccc(F)cc4Cl)ncnc3c2)CC1` [Example 2.63, 4-(2-chloro-4-fluorophenoxy)-7-(3-(4-methylpiperazin-1-yl)propoxy)-5-((tetrahydro-2H-pyran-4-yl)oxy)quinazoline], the concentration for half-maximal inhibition (IC50) on human Tyro3, on human Mer and on human Axl was less than 500 nM in each case.
On to `CN1CCN(CCOc2cc(OC3CCOCC3)c3c(Oc4ccc(F)cc4Cl)ncnc3c2)CC1` [Example 3, 4-(2-chloro-4-fluorophenoxy)-7-(2-(4-methylpiperazin-1-yl)ethoxy)-5-((tetrahydro-2H-pyran-4-yl)oxy)quinazoline], for which the IC50 on human Tyro3 was 500 to 1000 nM; on human Mer it was 1000 to 10000 nM; at human Axl, 1000 to 10000 nM.
For the molecule `COc1cc(OC2CCOCC2)c2c(Oc3ccc(F)cc3Cl)ncnc2c1` [Example 3.1, 4-(2-chloro-4-fluorophenoxy)-7-methoxy-5-((tetrahydro-2H-pyran-4-yl)oxy)quinazoline], the 50% inhibitory concentration (IC50) on human Tyro3 was 500 to 1000 nM; at human Mer, 500 to 1000 nM; on human Axl, more than 10000 nM.
In the case of `CN1CCN(CCOc2cc(OC3CCOCC3)c3c(Oc4ccccc4)ncnc3c2)CC1` [Example 3.2, 7-(2-(4-methylpiperazin-1-yl)ethoxy)-4-phenoxy-5-((tetrahydro-2H-pyran-4-yl)oxy)quinazoline], the IC50 was less than 500 nM on human Tyro3, 1000 to 10000 nM on human Mer and less than 500 nM on human Axl.
For the molecule `CN1CCN(CCOc2cc(OC3CCOCC3)c3c(Sc4ccc(F)cc4Cl)ncnc3c2)CC1` [Example 3.3, 4-((2-chloro-4-fluorophenyl)thio)-7-(2-(4-methylpiperazin-1-yl)ethoxy)-5-((tetrahydro-2H-pyran-4-yl)oxy)quinazoline], the IC50 on human Tyro3 is less than 500 nM; at human Mer it was 1000 to 10000 nM; on human Axl, more than 10000 nM.
On to `CN1CCN(CCOc2cc(OC3CCOCC3)c3c(OC4CCCCC4)ncnc3c2)CC1` [Example 3.4, 4-(cyclohexyloxy)-7-(2-(4-methylpiperazin-1-yl)ethoxy)-5-((tetrahydro-2H-pyran-4-yl)oxy)quinazoline], for which the IC50 at human Tyro3 fell in the range of 1000 to 10000 nM; at human Mer, 500 to 1000 nM; on human Axl, 500 to 1000 nM.
In the case of `COCCOc1cc(OCCN2CCN(C)CC2)cc2ncnc(Sc3ccc(Cl)cc3)c12` [Example 4, 4-((4-chlorophenyl)thio)-5-(2-methoxyethoxy)-7-(2-(4-methylpiperazin-1-yl)ethoxy)quinazoline], the IC50 was 1000 to 10000 nM on human Tyro3, more than 10000 nM on human Mer and more than 10000 nM at human Axl.
For the molecule `COCCOc1cc(OCCN2CCN(C)CC2)cc2ncnc(Sc3ccc(F)cc3)c12` [Example 4.1, 4-((4-fluorophenyl)thio)-5-(2-methoxyethoxy)-7-(2-(4-methylpiperazin-1-yl)ethoxy)quinazoline], the IC50 on human Tyro3 is 500 to 1000 nM; at human Mer it was more than 10000 nM; at human Axl, more than 10000 nM.
Turning to `COCCOc1cc(OCCN2CCN(C)CC2)cc2ncnc(Sc3cc(Cl)cc(Cl)c3)c12` [Example 4.2, 4-((3,5-dichlorophenyl)thio)-5-(2-methoxyethoxy)-7-(2-(4-methylpiperazin-1-yl)ethoxy)quinazoline], the figures for the IC50 at human Tyro3, on human Mer and at human Axl were 1000 to 10000 nM, more than 10000 nM and 1000 to 10000 nM, respectively.
Regarding `COCCOc1cc(OCCN2CCN(C)CC2)cc2ncnc(Sc3cc(F)cc(F)c3)c12` [Example 4.3, 4-((3,5-difluorophenyl)thio)-5-(2-methoxyethoxy)-7-(2-(4-methylpiperazin-1-yl)ethoxy)quinazoline], the IC50 was 1000 to 10000 nM at human Tyro3, more than 10000 nM at human Mer and 1000 to 10000 nM on human Axl.
On to `COCCOc1cc(OCCN2CCN(C)CC2)cc2ncnc(Sc3ccc(Cl)cc3Cl)c12` [Example 4.4, 4-((2,4-dichlorophenyl)thio)-5-(2-methoxyethoxy)-7-(2-(4-methylpiperazin-1-yl)ethoxy)quinazoline], for which the IC50 is 1000 to 10000 nM at human Tyro3, more than 10000 nM at human Mer and 1000 to 10000 nM on human Axl.
As to `COCCOc1cc(OCCN2CCN(C)CC2)cc2ncnc(Sc3ccc(F)c(Br)c3)c12` [Example 4.5, 4-((3-bromo-4-fluorophenyl)thio)-5-(2-methoxyethoxy)-7-(2-(4-methylpiperazin-1-yl)ethoxy)quinazoline], the IC50 at human Tyro3 was less than 500 nM; on human Mer, more than 10000 nM; at human Axl, 1000 to 10000 nM.
